≈ marks a conversion by molar mass, not a printed value.
Assays:
[1] = system: Mycobacterium tuberculosis (strain H37Rv); experiment: MABA minimum inhibitory concentration assay (aerobic/replicating); assay type: cell-based; details: M.tb H37Rv; for MIC90: Mycobacterium tuberculosis; for MIC90 / MIC90 MABA: aerobic/replicating, 90% inhibition of growth; for anti-mycobacterial activity in words: MABA/LORA
[2] = system: VERO green monkey kidney cells; experiment: VERO mammalian cell toxicity assay; assay type: cell-based; details: inhibition of growth of VERO green monkey kidney epithelial cells; for IC50: Chlorocebus sabaeus
[3] = system: Mycobacterium tuberculosis (strain H37Rv); experiment: LORA minimum inhibitory concentration assay (low-oxygen/non-replicating); details: M.tb H37Rv, 90% inhibition of growth
[4] = Microsomal stability, human liver microsomes; assay type: in vitro ADME; details: pH 7.4; for microsomal CLint at 1 μM: human liver microsomes, read-out: HLM Clint(mic)
Description: (§1) Assays were performed by WuXi AppTec (Shanghai) Co., Ltd. The test compounds (Table 4) (at 1 μM) were incubated at 37 °C with liver microsomes from human or CD-1 mice in the presence of a NADPH regenerating system and phosphate buffer (100 mM, pH 7.4) at 0.5 mg/mL microsomal protein (the positive controls were testosterone, propafenone, and diclofenac). Samples were removed at time intervals of 0, 5, 10, 20, 30, and 60 min and immediately mixed with cold CH3CN (containing 0.1 μg/mL of tolbutamide as an internal standard) and then centrifuged prior to analysis by LCMS/MS.

[5] = Microsomal stability, mouse liver microsomes; assay type: in vitro ADME; details: for CLint scaled at 1 μM / half-life at 1 μM: CD-1, mouse, microsomes, pH 7.4; for microsomal CLint at 1 μM: CD-1, pH 7.4, mouse liver microsomes, read-out: MLM Clint(mic)
Description: as §1

[6] = human/mouse liver microsomes not distinguished, read-out: T½ values (microsomal stability)

| Molecule | MIC90 [1] [µg/mL] | IC50 [2] [µg/mL] | MIC90 LORA [3] [µg/mL] | melting point [°C] | other results |
| --- | --- | --- | --- | --- | --- |
| Cc1ccc(-c2cc(NCc3ccccn3)n3ncc(-c4ccc(F)cc4)c3n2)cc1 [Compound 33, 3-(4-Fluorophenyl)-N-(pyridin-2-ylmethyl)-5-(p-tolyl)pyrazolo[1,5-a]pyrimidin-7-amine] | 3.7 (≈ 9.04 µM) | > 32 | 5.0 (≈ 12.2 µM) |  |  |
| COc1cccc(-c2cnn3c(NCc4ccccn4)cc(-c4ccccc4)nc23)c1 [Compound 16, 3-(3-Methoxyphenyl)-5-phenyl-N-(pyridin-2-ylmethyl)pyrazolo[1,5-a]pyrimidin-7-amine] | 7.6 (≈ 18.7 µM) | > 32 | 10 (≈ 24.5 µM) | 122 to 124 |  |
| Fc1ccc(-c2cnn3c(NCc4cc(N5CCCC5)ccn4)cc(-c4ccccc4)nc23)cc1 [Compound 64, 3-(4-Fluorophenyl)-5-phenyl-N-((4-(pyrrolidin-1-yl)pyridin-2-yl)methyl)pyrazolo[1,5-a]pyrimidin-7-amine] | 0.47 (≈ 1.01 µM) | 16 (≈ 34.4 µM) | 0.94 (≈ 2.02 µM) | 221 to 223 |  |
| 3-(4-Fluorophenyl)-N-((6-(4-methylpiperidin-1-yl)pyridin-2-yl)methyl)-5-phenylpyrazolo[1,5-a]pyrimidin-7-amine [Compound 51] |  |  | 0.85 |  | MIC90 MABA [1]: 0.94 µg/mL; IC50 VERO [2]: 11.8 µg/mL |
| Fc1ccc(-c2cnn3c(NCc4cc(Cl)ccn4)cc(-c4ccccc4)nc23)cc1 [Compound 60, N-((4-Chloropyridin-2-yl)methyl)-3-(4-fluorophenyl)-5-phenylpyrazolo[1,5-a]pyrimidin-7-amine] | > 32 | > 32 | >32 | 220 to 222 | anti-mycobacterial activity in words [1]: inactive |
| CN(C)CCCc1ccc(CNc2cc(-c3ccccc3)nc3c(-c4ccc(F)cc4)cnn23)nc1 [Compound 56, N-((5-(3-(dimethylamino)propyl)pyridin-2-yl)methyl)-3-(4-fluorophenyl)-5-phenylpyrazolo[1,5-a]pyrimidin-7-amine] | 5.8 (≈ 12.1 µM) | 20.3 (≈ 42.2 µM) | 6.1 (≈ 12.7 µM) |  |  |
| N#Cc1cccnc1CNc1cc(-c2ccccc2)nc2c(-c3ccc(F)cc3)cnn12 [Compound 72, 2-(((3-(4-Fluorophenyl)-5-phenylpyrazolo[1,5-a]pyrimidin-7-yl)amino)methyl)nicotinonitrile] | > 32 | > 32 | >32 | 241 to 244 |  |
| Fc1ccc(-c2cnn3c(NCc4ccccn4)ccnc23)cc1 [Compound 22, 3-(4-Fluorophenyl)-N-(pyridin-2-ylmethyl)pyrazolo[1,5-a]pyrimidin-7-amine] | 0.89 (≈ 2.79 µM) | > 32 | 0.39 (≈ 1.22 µM) |  |  |
| Cc1cccc(-c2cnn3c(NCc4ccccn4)cc(-c4ccccc4)nc23)c1 [Compound 15, 5-Phenyl-N-(pyridin-2-ylmethyl)-3-(m-tolyl)pyrazolo[1,5-a]pyrimidin-7-amine] | > 32 | > 32 | 30 (≈ 76.6 µM) | 172 to 174 |  |
| COc1cccc(-c2cc(NCc3ccccn3)n3ncc(-c4ccc(F)cc4)c3n2)c1 [Compound 31, 3-(4-Fluorophenyl)-5-(3-methoxyphenyl)-N-(pyridin-2-ylmethyl)pyrazolo[1,5-a]pyrimidin-7-amine] | 3.9 (≈ 9.17 µM) | > 32 | 1.7 (≈ 4 µM) |  |  |
| Fc1ccc(-c2cnn3c(NCc4ccccn4)cc(C4=CCCC4)nc23)cc1 [Compound 26, 5-(Cyclopent-1-en-1-yl)-3-(4-fluorophenyl)-N-(pyridin-2-ylmethyl)pyrazolo[1,5-a]pyrimidin-7-amine] | 0.89 (≈ 2.31 µM) | > 32 | 0.23 (≈ 0.597 µM) |  | CLint scaled at 1 μM ([4]; human, microsomes): 32 mL/min/kg; half-life at 1 μM ([4]; human, microsomes): 39 min; microsomal CLint at 1 μM [4]: 35 µL/min/mg; half-life at 1 μM [4, 6]: < 85 min; CLint scaled at 1 μM [5]: 140 mL/min/kg; half-life at 1 μM [5]: 39 min; microsomal CLint at 1 μM [5]: 35 µL/min/mg |
| Cc1ccc(-c2cnn3c(NCc4ccccn4)cc(-c4ccccc4)nc23)cc1 [Compound 19, 5-Phenyl-N-(pyridin-2-ylmethyl)-3-(p-tolyl)pyrazolo[1,5-a]pyrimidin-7-amine] | > 32 | > 32 | >32 | 172 to 174 | anti-mycobacterial activity in words [1]: inactive |
| COc1ccccc1-c1cnn2c(NCc3ccccn3)cc(-c3ccccc3)nc12 [Compound 12, 3-(2-Methoxyphenyl)-5-phenyl-N-(pyridin-2-ylmethyl)pyrazolo[1,5-a]pyrimidin-7-amine] | > 32 | > 32 | >32 | 169 to 171 |  |
| Fc1ccc(-c2cnn3c(NCc4ccc(N5CCCCC5)cn4)cc(-c4ccccc4)nc23)cc1 [Compound 59, 3-(4-Fluorophenyl)-5-phenyl-N-((5-(piperidin-1-yl)pyridin-2-yl)methyl)pyrazolo[1,5-a]pyrimidin-7-amine] | 0.96 (≈ 2.01 µM) | > 32 | 0.85 (≈ 1.78 µM) | 179 to 182 |  |
| C=Cc1cc(NCc2ccccn2)n2ncc(-c3ccc(F)cc3)c2n1 [Compound 24, 3-(4-Fluorophenyl)-N-(pyridin-2-ylmethyl)-5-vinylpyrazolo[1,5-a]pyrimidin-7-amine] | 1.48 (≈ 4.29 µM) | 17.2 (≈ 49.8 µM) | 0.47 (≈ 1.36 µM) |  |  |
| FC(F)(F)c1cccc(-c2cnn3c(NCc4ccccn4)cc(-c4ccccc4)nc23)c1 [Compound 17, 5-Phenyl-N-(pyridin-2-ylmethyl)-3-(3-(trifluoromethyl)phenyl)pyrazolo[1,5-a]pyrimidin-7-amine] | > 32 | > 32 | >32 | 156 to 158 |  |
| CN(C)CC#Cc1ccc(CNc2cc(-c3ccccc3)nc3c(-c4ccc(F)cc4)cnn23)nc1 [Compound 55, N-((5-(3-(Dimethylamino)prop-1-yn-1-yl)pyridin-2-yl)methyl)-3-(4-fluorophenyl)-5-phenylpyrazolo[1,5-a]pyrimidin-7-amine] | 1.9 (≈ 3.99 µM) | > 32 | 5.5 (≈ 11.5 µM) |  | CLint scaled at 1 μM ([4]; human, microsomes): < 8.6 mL/min/kg; half-life at 1 μM ([4]; human, microsomes): > 145 min; microsomal CLint at 1 μM [4]: < 9.6 µL/min/mg; CLint scaled at 1 μM [5]: 121 mL/min/kg; half-life at 1 μM [5]: 45.4 min; microsomal CLint at 1 μM [5]: 31 µL/min/mg |
| Fc1ccc(-c2cnn3c(NCc4ccccn4)cc(C4=CCCCC4)nc23)cc1 [Compound 27, 5-(Cyclohex-1-en-1-yl)-3-(4-fluorophenyl)-N-(pyridin-2-ylmethyl)pyrazolo[1,5-a]pyrimidin-7-amine] | 0.62 (≈ 1.55 µM) | > 32 | 0.44 (≈ 1.1 µM) |  | CLint scaled at 1 μM ([4]; human, microsomes): 17 mL/min/kg; half-life at 1 μM ([4]; human, microsomes): 75 min; microsomal CLint at 1 μM [4]: 19 µL/min/mg; half-life at 1 μM [4, 6]: < 85 min; CLint scaled at 1 μM [5]: 120 mL/min/kg; half-life at 1 μM [5]: 49 min; microsomal CLint at 1 μM [5]: 30 µL/min/mg |
| CN(C)CCOc1ccc(CNc2cc(-c3ccccc3)nc3c(-c4ccc(F)cc4)cnn23)nc1 [Compound 57, N-((5-(2-(Dimethylamino)ethoxy)pyridin-2-yl)methyl)-3-(4-fluorophenyl)-5-phenylpyrazolo[1,5-a]pyrimidin-7-amine] | 3.6 (≈ 7.46 µM) | 24 (≈ 49.7 µM) | 1.9 (≈ 3.94 µM) |  |  |
| Fc1ccc(-c2cnn3c(NCc4ccccn4)cc(-c4ccco4)nc23)cc1 [Compound 43, 3-(4-Fluorophenyl)-5-(furan-2-yl)-N-(pyridin-2-ylmethyl)pyrazolo[1,5-a]pyrimidin-7-amine] | 0.96 (≈ 2.49 µM) | > 32 | <0.13 |  |  |
| Fc1ccc(-c2cnn3c(NCc4ccccn4)cc(-c4ccncc4)nc23)cc1 [Compound 40, 3-(4-Fluorophenyl)-N-(pyridin-2-ylmethyl)-5-(pyridin-4-yl)pyrazolo[1,5-a]pyrimidin-7-amine] | > 32 | > 32 | 28 (≈ 70.6 µM) |  |  |
| COc1ccccc1-c1cc(NCc2ccccn2)n2ncc(-c3ccc(F)cc3)c2n1 [Compound 29, 3-(4-Fluorophenyl)-5-(2-methoxyphenyl)-N-(pyridin-2-ylmethyl)pyrazolo[1,5-a]pyrimidin-7-amine] | 13.3 (≈ 31.3 µM) | > 32 | 9.0 (≈ 21.2 µM) |  |  |
| Fc1ccc(-c2cc(NCc3ccccn3)n3ncc(-c4ccc(F)cc4)c3n2)cc1 [Compound 32, 3,5-Bis(4-fluorophenyl)-N-(pyridin-2-ylmethyl)pyrazolo[1,5-a]pyrimidin-7-amine] | 3 (≈ 7.26 µM) | > 32 | 0.22 (≈ 0.532 µM) |  |  |
| Fc1ccc(-c2cnn3c(NCc4ccccn4)cc(-c4ccc(C(F)(F)F)cc4)nc23)cc1 [Compound 37, 3-(4-Fluorophenyl)-N-(pyridin-2-ylmethyl)-5-(4-(trifluoromethyl)phenyl)pyrazolo[1,5-a]pyrimidin-7-amine] | 3.8 (≈ 8.2 µM) | > 32 | 3.6 (≈ 7.77 µM) |  |  |
| N-((4-(2-(Dimethylamino)ethoxy)pyridin-2-yl)methyl)-3-(4-fluorophenyl)-5-phenylpyrazolo[1,5-a]pyrimidin-7-amine [Compound 58] |  |  | 4.1 |  | MIC90 MABA [1]: 4.7 µg/mL; IC50 VERO [2]: >32 µg/mL |

Source: PMC9506485, “Synthesis and Structure–Activity Relationships for the Anti-Mycobacterial Activity of 3-Phenyl-N-(Pyridin-2-ylmethyl)Pyrazolo[1,5-a]Pyrimidin-7-Amines” (Pharmaceuticals, 2022)
